# Structures can show the parent of a compound that is named as a salt. Where two headings read alike, the source gives them in different places.
# Columns and labels:
# human 5-HT6 receptor [1] = molecular target: T1, human 5-HT6 receptor (Homo sapiens, UniProt P50406); assay: 5-HT6 binding assay ([3H]-LSD, SPA, membranes of transfected HEK293 cells)
# T1 construct: expressed in transfected cells; host or cells: HEK293
# human 5-HT6 receptor [2] = molecular target: T1, human 5-HT6 receptor; assay: 5-HT6 intrinsic activity assay (inhibition of 5-HT induced increase in cAMP); assay type: cell-based
# 5-HT2a = 5-HT2a (Homo sapiens, UniProt P28223); assay: Selectivity binding 5-HT2a
# 5-HT2b = 5-HT2b (Homo sapiens, UniProt P41595); assay: Selectivity binding 5-HT2b
# 5-HT2c = molecular target: T2, 5-HT2c (Homo sapiens, UniProt P28335); assay: Selectivity binding 5-HT2c
# T2 sequence (P28335 33-458): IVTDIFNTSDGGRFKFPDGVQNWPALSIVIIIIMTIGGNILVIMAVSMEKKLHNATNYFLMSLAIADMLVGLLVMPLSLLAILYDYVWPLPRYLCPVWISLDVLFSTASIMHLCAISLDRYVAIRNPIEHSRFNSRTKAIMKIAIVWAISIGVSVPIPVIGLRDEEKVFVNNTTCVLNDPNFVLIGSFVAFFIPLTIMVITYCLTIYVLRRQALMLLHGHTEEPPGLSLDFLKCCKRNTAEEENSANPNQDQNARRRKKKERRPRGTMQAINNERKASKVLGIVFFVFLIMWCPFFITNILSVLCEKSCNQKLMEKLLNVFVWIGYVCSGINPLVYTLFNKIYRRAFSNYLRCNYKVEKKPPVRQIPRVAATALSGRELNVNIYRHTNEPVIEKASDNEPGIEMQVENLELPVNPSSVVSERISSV
# 5-HT1a = molecular target: T3, 5-HT1a (Homo sapiens, UniProt P08908); assay: Selectivity binding 5-HT1a
# T3 sequence (P08908 1-422): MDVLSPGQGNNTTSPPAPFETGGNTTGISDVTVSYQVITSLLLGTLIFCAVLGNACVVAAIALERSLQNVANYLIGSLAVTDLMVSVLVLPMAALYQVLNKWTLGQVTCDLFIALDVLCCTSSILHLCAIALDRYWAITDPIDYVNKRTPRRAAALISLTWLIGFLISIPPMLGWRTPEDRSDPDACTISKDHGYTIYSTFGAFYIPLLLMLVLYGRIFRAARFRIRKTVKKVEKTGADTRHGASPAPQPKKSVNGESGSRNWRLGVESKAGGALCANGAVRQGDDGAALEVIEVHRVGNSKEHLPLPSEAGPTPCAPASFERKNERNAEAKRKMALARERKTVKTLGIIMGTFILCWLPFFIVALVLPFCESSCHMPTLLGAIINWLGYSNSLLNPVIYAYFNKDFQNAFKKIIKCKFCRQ
# 5-HT1b = 5-HT1b (Homo sapiens, UniProt P28222); assay: Selectivity binding 5-HT1b
# κ (KOP) [3] = molecular target: T4, κ (KOP) (Cavia porcellus, UniProt P41144); assay: κ (KOP) binding (guinea-pig cerebellum)
# T4 construct: Guinea-pig cerebellum; from tissue; host or cells: guinea-pig cerebellum
# 5-HT3 = molecular target: T5, 5-HT3 (Homo sapiens, UniProt P46098); assay: 5-HT3 binding (human recombinant, HEK-293 cells)
# T5 construct: expressed in transfected cells; host or cells: HEK-293 cells
# T5 sequence (P46098 24-478): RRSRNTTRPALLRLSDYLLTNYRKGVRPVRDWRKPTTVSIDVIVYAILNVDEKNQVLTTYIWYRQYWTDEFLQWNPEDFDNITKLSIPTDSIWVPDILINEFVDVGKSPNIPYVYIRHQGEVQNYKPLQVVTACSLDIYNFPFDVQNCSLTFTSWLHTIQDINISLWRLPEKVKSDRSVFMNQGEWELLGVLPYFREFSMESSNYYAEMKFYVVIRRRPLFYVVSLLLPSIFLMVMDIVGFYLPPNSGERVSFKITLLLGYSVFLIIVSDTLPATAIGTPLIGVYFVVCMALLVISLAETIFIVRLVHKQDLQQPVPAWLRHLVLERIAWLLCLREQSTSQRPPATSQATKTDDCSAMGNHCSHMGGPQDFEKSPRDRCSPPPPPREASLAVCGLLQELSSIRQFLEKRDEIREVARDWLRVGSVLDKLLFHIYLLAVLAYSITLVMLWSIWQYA
# κ (KOP) [4] = molecular target: κ (KOP) (Homo sapiens, UniProt P41145); assay: κ (KOP) EC50 (method not described)
# body weight of DIO rats = assay: Effect on body weight, 28 days oral treatment of DIO rats; assay type: in vivo, male Sprague-Dawley rats; settings: for Body weight Mean (g) Day 28: 28 days; for Basal Mean (%) Day 28: body weight % of basal; for Body weight gain Mean: day 28-initial; for Reduction % of vehicle / Reduction gram: versus vehicle at day 28
# Procedure: (§1) (c) Effect on Body Weight and on Food Intake
# (§2) The corresponding solution was used as vehicle. The stability of the solutions were checked upon storage for 14 days. Solutions were formulated twice a week and stored in freezer. The solutions were analysed for the actual concentrations and found similar between the two occasions.
# (§3) Hundred (100) male Sprague-Dawley rats were raised on high fat diet at Scanbur BK AB (Sollentuna, Sweden) which upon their arrival to the Biovitrum animal care facility weighed approximately 700 g (17 weeks old). The rats were conditioned and weighed for approximately three weeks after their arrival. The rats were singly stored in standard cages during constant room conditions (temp 22+/−1° C., humidity 40-60%, 12 h light/dark cycle, lights off at 10 am). The rats received the same high fat diet (45 kcal % fat, 4.7 kcal/g; D12451) as they received at Scanbur. The diets were purchased from Research Diets, Inc., New Jersey, USA, consisted of pellets and were stored under dry and cold conditions.
# (§4) The high fat fed animals which gained the highest weight were selected. This population weighed 799±60 g. The selected forty-eight (48) rats were randomized and divided into […] treatment groups in order to obtain as homogeneous groups according to body weight as possible. Each treatment group consisted of 12 rats: Group 1—vehicle, Group 2—Example 1-5 mg/kg (11 μmol/kg), Group 3—Example 1-15 mg/kg (33 μmol/kg), Group 4—Example 1-30 mg/kg (66 μmol/kg). Further nine (9) rats were allocated for measurement of compound exposure and pharmacokinetics at each dose group in parallel for the seventh and the twentyninth days. The study was started by baseline measurements for five days in order to accustom the rats to the procedure and to the experimentalists. Test compound was administered orally once a day at 9-10 am in a volume of 2.5 ml/kg i.e.an average of 2 ml per (800 g) rat. Pellets and body were weighed each day in connection with the injections. Water bottles were weighed once a week. The weighings were done with a computer-assisted Mettler Toledo PR 5002 balance. All data were transferred into an Excel template.
# (§5) The food and water intake, and body weight data are calculated in gram and % of basal and expressed as mean +/−SD and/or +/−SEM.
# (§6) The data of body weight and food intake was statistically analysed by two-way univariate ANOVA with repeated measurements (treatment x time) followed by one-way ANOVA for comparison between treatment groups at selected time points. Clinical chemistry measurements were analysed by one-way ANOVA followed by Dunnetts t-test for test of significance of treatment groups versus vehicle control. A difference between two groups was considered significant if P<0.05. Statistical evaluation was performed using SPSS for Windows.
# food intake of DIO rats = assay: Effect on food intake, 28 days oral treatment of DIO rats; assay type: in vivo, male Sprague-Dawley rats; settings: for food intake versus vehicle, Dunnets t-test: first seven days
# Procedure: as §1, §2, §3, §4, §5, §6
# β1 = molecular target: T6, β1 (Homo sapiens, UniProt P08588); assay: β1 binding (human recombinant, HEK-293 cells)
# T6 construct: expressed in transfected cells; host or cells: HEK-293 cells
# β2 = molecular target: T7, β2 (Homo sapiens, UniProt P07550); assay: β2 binding (human recombinant, Sf9 cells)
# T7 construct: expressed in transfected cells; host or cells: Sf9 cells
# [5] = read-out: 5-HT2a Selectivity Binding (Ki)
# [6] = read-out: 5-HT2c Selectivity Binding (Ki)
# [7] = competition with 3 nM [3H] LSD, HEK293 membranes, read-out: 5-HT6 Binding (Ki)
# [8] = read-out: 5-HT1a Selectivity Binding (Ki)
# [9] = read-out: 5-HT1b Selectivity Binding (Ki)
# 5-HT2a, sequence (P28223 whole entry, species assumed): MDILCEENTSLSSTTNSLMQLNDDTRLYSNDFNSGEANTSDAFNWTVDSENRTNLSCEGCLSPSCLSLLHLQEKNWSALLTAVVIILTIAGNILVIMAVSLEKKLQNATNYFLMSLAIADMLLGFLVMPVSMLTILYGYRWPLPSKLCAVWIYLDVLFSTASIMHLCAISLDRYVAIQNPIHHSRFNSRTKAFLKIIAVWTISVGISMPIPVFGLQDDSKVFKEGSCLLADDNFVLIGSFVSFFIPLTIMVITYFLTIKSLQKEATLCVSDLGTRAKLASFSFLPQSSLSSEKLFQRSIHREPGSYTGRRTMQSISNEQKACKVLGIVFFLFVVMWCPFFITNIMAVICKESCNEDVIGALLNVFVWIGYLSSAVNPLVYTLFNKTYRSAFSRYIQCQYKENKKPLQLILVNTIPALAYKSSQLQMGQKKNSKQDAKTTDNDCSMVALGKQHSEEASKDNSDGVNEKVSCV
# 5-HT1b, sequence (P28222 whole entry, species assumed): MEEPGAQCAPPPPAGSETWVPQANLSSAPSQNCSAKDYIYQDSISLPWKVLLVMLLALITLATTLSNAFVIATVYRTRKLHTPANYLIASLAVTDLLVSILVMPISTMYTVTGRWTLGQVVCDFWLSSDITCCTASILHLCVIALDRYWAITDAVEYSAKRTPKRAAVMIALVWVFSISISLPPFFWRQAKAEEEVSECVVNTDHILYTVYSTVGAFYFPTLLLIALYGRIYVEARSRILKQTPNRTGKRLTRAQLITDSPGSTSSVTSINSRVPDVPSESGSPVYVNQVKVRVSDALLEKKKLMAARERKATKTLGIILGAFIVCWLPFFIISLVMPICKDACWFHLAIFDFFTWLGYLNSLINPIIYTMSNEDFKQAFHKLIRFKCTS
# T4 sequence (P41144 whole entry): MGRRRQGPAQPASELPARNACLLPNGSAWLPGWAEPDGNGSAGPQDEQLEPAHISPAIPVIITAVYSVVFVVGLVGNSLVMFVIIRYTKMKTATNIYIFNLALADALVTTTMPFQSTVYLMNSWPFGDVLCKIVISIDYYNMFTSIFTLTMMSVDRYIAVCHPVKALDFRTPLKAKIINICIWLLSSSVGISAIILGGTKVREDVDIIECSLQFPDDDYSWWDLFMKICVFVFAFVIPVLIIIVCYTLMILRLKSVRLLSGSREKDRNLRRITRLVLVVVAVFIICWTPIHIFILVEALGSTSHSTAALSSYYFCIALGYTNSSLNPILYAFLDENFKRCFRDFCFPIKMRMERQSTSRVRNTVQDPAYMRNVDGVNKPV
# 5-HT2b, sequence (P41595 whole entry, species assumed): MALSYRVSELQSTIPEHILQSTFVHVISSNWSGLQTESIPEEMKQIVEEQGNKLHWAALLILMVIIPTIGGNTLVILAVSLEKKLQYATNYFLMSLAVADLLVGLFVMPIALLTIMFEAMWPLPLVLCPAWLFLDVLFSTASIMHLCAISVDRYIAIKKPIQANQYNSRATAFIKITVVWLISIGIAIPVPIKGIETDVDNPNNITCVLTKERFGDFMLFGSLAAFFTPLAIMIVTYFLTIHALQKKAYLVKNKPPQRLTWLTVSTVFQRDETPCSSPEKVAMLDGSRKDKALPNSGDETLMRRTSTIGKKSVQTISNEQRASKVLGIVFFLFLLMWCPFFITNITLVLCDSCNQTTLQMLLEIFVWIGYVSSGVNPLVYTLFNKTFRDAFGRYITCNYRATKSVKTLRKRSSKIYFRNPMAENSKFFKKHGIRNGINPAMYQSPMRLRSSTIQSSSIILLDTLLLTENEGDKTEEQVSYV
# T1 sequence (P50406 whole entry): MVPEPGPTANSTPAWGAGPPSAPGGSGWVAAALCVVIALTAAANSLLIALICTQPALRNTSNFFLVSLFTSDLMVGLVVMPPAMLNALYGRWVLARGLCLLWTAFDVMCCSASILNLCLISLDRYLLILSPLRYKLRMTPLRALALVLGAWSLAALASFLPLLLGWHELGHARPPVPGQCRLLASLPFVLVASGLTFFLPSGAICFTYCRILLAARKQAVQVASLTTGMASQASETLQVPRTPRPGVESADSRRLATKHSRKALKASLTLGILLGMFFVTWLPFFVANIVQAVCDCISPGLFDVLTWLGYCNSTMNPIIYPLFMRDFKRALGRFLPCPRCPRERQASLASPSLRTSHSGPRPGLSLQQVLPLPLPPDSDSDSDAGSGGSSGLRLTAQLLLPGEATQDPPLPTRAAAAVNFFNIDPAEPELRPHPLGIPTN
# T6 sequence (P08588 whole entry): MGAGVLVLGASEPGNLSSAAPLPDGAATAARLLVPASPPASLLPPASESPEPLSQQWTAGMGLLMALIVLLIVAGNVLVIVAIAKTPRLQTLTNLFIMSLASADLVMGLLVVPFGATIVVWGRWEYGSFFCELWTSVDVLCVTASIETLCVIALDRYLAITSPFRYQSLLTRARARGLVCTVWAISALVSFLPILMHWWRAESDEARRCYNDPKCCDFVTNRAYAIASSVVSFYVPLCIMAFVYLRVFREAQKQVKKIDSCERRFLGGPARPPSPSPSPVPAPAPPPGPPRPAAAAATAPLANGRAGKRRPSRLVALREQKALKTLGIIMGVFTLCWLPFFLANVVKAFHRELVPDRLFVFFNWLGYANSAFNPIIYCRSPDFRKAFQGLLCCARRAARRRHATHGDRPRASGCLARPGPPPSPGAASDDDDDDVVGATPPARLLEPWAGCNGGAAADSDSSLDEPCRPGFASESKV
# T7 sequence (P07550 whole entry): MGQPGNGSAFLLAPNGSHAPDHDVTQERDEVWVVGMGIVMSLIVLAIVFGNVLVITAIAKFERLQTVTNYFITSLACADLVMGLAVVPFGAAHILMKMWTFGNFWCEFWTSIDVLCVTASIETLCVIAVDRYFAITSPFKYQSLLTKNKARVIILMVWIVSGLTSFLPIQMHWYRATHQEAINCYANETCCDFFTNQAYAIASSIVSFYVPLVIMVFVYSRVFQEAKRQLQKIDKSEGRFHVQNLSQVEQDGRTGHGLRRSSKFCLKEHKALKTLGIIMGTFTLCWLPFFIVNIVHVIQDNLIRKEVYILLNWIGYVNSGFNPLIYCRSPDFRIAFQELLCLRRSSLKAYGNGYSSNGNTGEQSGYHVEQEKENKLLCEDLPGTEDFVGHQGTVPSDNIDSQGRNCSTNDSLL
# κ (KOP) (Homo sapiens, UniProt P41145), sequence (P41145 whole entry): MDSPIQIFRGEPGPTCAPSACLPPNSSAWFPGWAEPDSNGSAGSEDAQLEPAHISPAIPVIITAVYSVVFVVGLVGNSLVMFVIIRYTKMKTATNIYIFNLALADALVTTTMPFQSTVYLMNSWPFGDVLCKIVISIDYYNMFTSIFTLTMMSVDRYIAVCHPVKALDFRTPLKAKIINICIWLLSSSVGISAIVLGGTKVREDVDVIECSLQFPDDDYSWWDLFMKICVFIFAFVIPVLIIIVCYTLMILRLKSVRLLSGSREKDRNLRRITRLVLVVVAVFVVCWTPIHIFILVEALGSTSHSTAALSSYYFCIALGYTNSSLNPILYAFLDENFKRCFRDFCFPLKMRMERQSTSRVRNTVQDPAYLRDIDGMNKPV
smiles,measurement,setting,value
COc1cccc(C)c1NS(=O)(=O)c1cc(OC2CCNCC2)c2occc2c1 [Compound C],Ki,human 5-HT6 receptor [1],26 nM
same,Ki,human 5-HT6 receptor [2],51 nM
same,Ki,5-HT2a; [5],1000 nM
same,Ki,5-HT2b,600 nM
same,Ki,5-HT2c; [6],1250 nM
"O=S(=O)(Nc1cc(N2CCNCC2)c2occc2c1)c1cccc2ccccc12 [Ex. 148, N-(7-piperazin-1-yl-benzofuran-5-yl)-1-naphthylsulphonamide, hydrochloride]",Ki,human 5-HT6 receptor [1]; [7],0.18 nM
same,Ki,human 5-HT6 receptor [2],6 nM
same,Ki,5-HT2a; [5],412 nM
same,Ki,5-HT2b,19.7 nM
same,Ki,5-HT2c; [6],158 nM
COc1ccc(C)cc1NS(=O)(=O)c1cc(OC2CCCNC2)c2occc2c1 (stereo not shown) [Compound D],Ki,human 5-HT6 receptor [1],14 nM
same,Ki,human 5-HT6 receptor [2],37 nM
same,Ki,5-HT2a; [5],917 nM
same,Ki,5-HT2b,1450 nM
same,Ki,5-HT2c; [6],1370 nM
COc1ccc(C)cc1NS(=O)(=O)c1cc(OC2CCNCC2)c2occc2c1 [Example 1],inhibition at 0.05 µM,"human 5-HT6 receptor [1]; at 50 nM, either/or statement of b82, read-out: % inhibition of [3H] LSD (general statement)",≥ 20%
same,Ki,"5-HT1a; figure in parentheses after the bound, read-out: 5-HT1a Selectivity Binding (Ki), value in parentheses",1400 nM
same,Ki,5-HT1a; [8],> 1000 nM
same,Ki,"5-HT1b; figure in parentheses after the bound, read-out: 5-HT1b Selectivity Binding (Ki), value in parentheses",3600 nM
same,Ki,5-HT1b; [9],> 1000 nM
same,Ki,"5-HT2a; figure in parentheses after the bound, read-out: 5-HT2a Selectivity Binding (Ki), value in parentheses",5600 nM
same,Ki,5-HT2a; [5],> 1000 nM
same,Ki,5-HT2b,440 nM
same,Ki,"5-HT2c; figure in parentheses after the bound, read-out: 5-HT2c Selectivity Binding (Ki), value in parentheses",2300 nM
same,Ki,5-HT2c; [6],> 1000 nM
same,Ki,κ (KOP) [3],120 nM
same,Ki,5-HT3,190 nM
same,EC50,κ (KOP) [4],3780 nM
same,Body weight Mean (g) Day 28,body weight of DIO rats; 5 mg/kg p.o. once a day,845 g
same,Basal Mean (%) Day 28,body weight of DIO rats; 5 mg/kg p.o.,103.5%
same,Body weight gain Mean,body weight of DIO rats; 5 mg/kg p.o.,29 g
same,Reduction % of vehicle,body weight of DIO rats; 5 mg/kg p.o.,3.9%
same,Reduction gram,body weight of DIO rats; 5 mg/kg p.o.,−31 gram
same,Body weight Mean (g) Day 28,body weight of DIO rats; 15 mg/kg p.o. once a day,834 g
same,Basal Mean (%) Day 28,body weight of DIO rats; 15 mg/kg p.o.,103.7%
same,Body weight gain Mean,body weight of DIO rats; 15 mg/kg p.o.,30 g
same,Reduction % of vehicle,body weight of DIO rats; 15 mg/kg p.o.,3.7%
same,Reduction gram,body weight of DIO rats; 15 mg/kg p.o.,−30 gram
same,Body weight Mean (g) Day 28,body weight of DIO rats; 30 mg/kg p.o. once a day,810 g
same,Basal Mean (%) Day 28,body weight of DIO rats; 30 mg/kg p.o.,100.6%
same,Body weight gain Mean,body weight of DIO rats; 30 mg/kg p.o.,4 g
same,Reduction % of vehicle,body weight of DIO rats; 30 mg/kg p.o.,6.9%
same,Reduction gram,body weight of DIO rats; 30 mg/kg p.o.,−57 gram
same,body weight throughout the whole treatment period,"body weight of DIO rats; 5, 15, 30 mg/kg p.o., four weeks, repeated ANOVA P<0.001",decreased significantly
same,reduction in body weight,"body weight of DIO rats; third dose of the sentence, printed as 15 mg/kg",6.9%
same,"food intake versus vehicle, Dunnets t-test",food intake of DIO rats; 15 mg/kg p.o.,significantly different from vehicle
same,"food intake versus vehicle, Dunnets t-test",food intake of DIO rats; 30 mg/kg p.o.,significantly different from vehicle
same,"food intake, days 8 to 14 and rest of the treatment period","food intake of DIO rats; all dose groups, P<0.076","remained decreased during the rest of the treatment period, although not statistically significant"
same,food intake during the first seven days,"food intake of DIO rats; all dose groups, repeated ANOVA P<0.001",decreased food intake significantly
same,minimum effective dose,"food intake of DIO rats; food intake, p.o.",15 mg/kg
"O=S(=O)(Nc1cc(OC2CCNCC2)c2occc2c1)c1ccccc1C(F)(F)F [Compound B, N-[7-(4-piperidinyloxy)-1-benzofuran-5-yl]-2-trifluoromethylbenzenesulphonamide]",Ki,human 5-HT6 receptor [1]; [7],4 nM
same,Ki,human 5-HT6 receptor [2],3 nM
same,Ki,5-HT1a; [8],> 1000 nM
same,Ki,5-HT1b; [9],1290 nM
same,Ki,5-HT2a; [5],> 1000 nM
same,Ki,5-HT2b,545 nM
same,Ki,5-HT2c; [6],> 1000 nM
same,β1 Binding % inihibition 1 μM,β1,82%
same,β2 Binding % inihibition 1 μM,β2,82%
same,κ (KOP) Binding % inihibition 1 μM,κ (KOP) [3],83%
same,5-HT3 Binding % inihibition 1 μM,5-HT3,91%
CN1C[C@@H](NS(=O)(=O)N(C)C)C[C@@H]2c3cccc4c3c(cn4C)C[C@H]21 [mesulergide],Ki,human 5-HT6 receptor [1]; [7],1970 nM
"Cl.O=S(=O)(Nc1cc(OC2CCNCC2)c2occc2c1)c1ccc(Cl)s1 [Compound A, 5-chlorothiophene-2-sulphonic acid, [7-(piperidin-4-yloxy)-benzofuran-5-yl]amide, hydrochloride]",Ki,human 5-HT6 receptor [1]; [7],9 nM
same,Ki,human 5-HT6 receptor [2],6 nM
same,Ki,5-HT1a; [8],1520 nM
same,Ki,5-HT1b; [9],1470 nM
same,Ki,5-HT2a; [5],> 1000 nM
same,Ki,5-HT2b,356 nM
same,Ki,5-HT2c; [6],> 1000 nM
same,β1 Binding % inihibition 1 μM,β1,80%
same,β2 Binding % inihibition 1 μM,β2,89%
same,κ (KOP) Binding % inihibition 1 μM,κ (KOP) [3],71%
same,5-HT3 Binding % inihibition 1 μM,5-HT3,90%

# — US7582767B2 (Biovitrum AB (publ.), priority 2005, dated 2009)
